Measurements from PubChem BioAssay AID248 (DTP/NCI, 2004).
Inconclusive results and toxic doses are left out. No stated cut-off is given here; in the data, active means T/C of 150% or more; inactive means T/C below 125%.

Tested on: L1210 leukemia ip in BDF1 mice, survival T/C
Assay: NCI In Vivo Anticancer Drug Screen. Data for tumor model L1210 Leukemia (intraperitoneal) in B6D2F1 (BDF1) mice
Conditions: endpoint: mean survival time, higher = longer survival
Procedure, shortened: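 Transplantable tumor model; survival measured in treated vs vehicle control mice. Value = treated/control.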

[1] = dose: 100.0 mg/kg/injection, schedule: Q01DX001 (ip), vehicle: other
[2] = dose: 200.0 mg/kg/injection, schedule: Q01DX001 (ip), vehicle: other
[3] = dose: 100.0 mg/kg/injection, schedule: Q04DX003 (ip), vehicle: Klucel (hydroxypropylcellulose) (HPC)
[4] = dose: 200.0 mg/kg/injection, schedule: Q04DX003 (ip), vehicle: Klucel (hydroxypropylcellulose) (HPC)
[5] = dose: 400.0 mg/kg/injection, schedule: Q04DX003 (ip), vehicle: Klucel (hydroxypropylcellulose) (HPC)

Measured: T/C

O=C(O)C1C2C=CC21 (stereo not given)
inactive: [1] 96 % of control | [2] 101 % of control | dose: 400.0 mg/kg/injection, schedule: Q01DX001 (ip), vehicle: other 102 % of control

O=C1c2ccccc2C(=O)N1CCOc1ccc([N+](=O)[O-])cc1
inactive: dose: 100.0 mg/kg/injection, schedule: Q01DX001 (ip), vehicle: gum acacia 92 % of control | dose: 200.0 mg/kg/injection, schedule: Q01DX001 (ip), vehicle: gum acacia 99 % of control | dose: 400.0 mg/kg/injection, schedule: Q01DX001 (ip), vehicle: gum acacia 92 % of control

Cc1cccc(N2CCN(P(=S)(c3ccccc3)N3CCN(c4cccc(C)c4)CC3)CC2)c1
inactive: dose: 100.0 mg/kg/injection, schedule: Q01DX001 (ip), vehicle: carboxymethylcellulose (CMC) 89 % of control | dose: 200.0 mg/kg/injection, schedule: Q01DX001 (ip), vehicle: carboxymethylcellulose (CMC) 95 % of control | dose: 400.0 mg/kg/injection, schedule: Q01DX001 (ip), vehicle: carboxymethylcellulose (CMC) 86 % of control

CC(=O)O[C@H]1[C@H]2O[C@]23[C@@H]2CC[C@]4(O)C[C@@H](O)CC[C@]4(C)[C@H]2CC[C@]3(C)[C@H]1c1ccc(=O)oc1
inactive: dose: 10.0 mg/kg/injection, schedule: Q01DX001 (ip), vehicle: other 90 % of control | dose: 20.0 mg/kg/injection, schedule: Q01DX001 (ip), vehicle: other 100 % of control | dose: 40.0 mg/kg/injection, schedule: Q01DX001 (ip), vehicle: other 107 % of control | [1] 94 % of control | [2] 92 % of control

O=C(O)CCCCCN1C(=O)C2=C(CCCC2)C1=O
inactive: dose: 75.0 mg/kg/injection, schedule: Q04DX003 (ip), vehicle: saline 98 % of control | dose: 150.0 mg/kg/injection, schedule: Q04DX003 (ip), vehicle: saline 103 % of control | dose: 300.0 mg/kg/injection, schedule: Q04DX003 (ip), vehicle: saline 93 % of control

N#Cc1c(NN)n(C2OC(CO)C(O)C2O)c2ncnc(N)c12 (stereo not given)
inactive: dose: 25.0 mg/kg/injection, schedule: Q01DX005 (ip), vehicle: saline 107 % of control | dose: 50.0 mg/kg/injection, schedule: Q01DX005 (ip), vehicle: saline 90 % of control | dose: 100.0 mg/kg/injection, schedule: Q01DX005 (ip), vehicle: saline 105 % of control | dose: 200.0 mg/kg/injection, schedule: Q01DX005 (ip), vehicle: saline 96 % of control

Nc1ccc2ccccc2c1-c1c(N)ccc2ccccc12
inactive: dose: 75.0 mg/kg/injection, schedule: Q04DX002 (ip), vehicle: saline with Tween-80 109 % of control | [3] 97 % of control | [4] 103 % of control | dose: 300.0 mg/kg/injection, schedule: Q04DX002 (ip), vehicle: saline with Tween-80 94 % of control | [5] 88 % of control

CN1CC(C)(C)C(=O)c2ccccc21
inactive: dose: 100.0 mg/kg/injection, schedule: Q04DX002 (ip), vehicle: other 95 % of control | dose: 200.0 mg/kg/injection, schedule: Q04DX002 (ip), vehicle: other 103 % of control | dose: 400.0 mg/kg/injection, schedule: Q04DX002 (ip), vehicle: other 103 % of control

Cc1ccc(NC(=O)COc2ccc(Cl)cc2)cc1Cl
inactive: dose: 100.0 mg/kg/injection, schedule: Q01DX009 (ip), vehicle: Klucel (hydroxypropylcellulose) (HPC) 94 % of control | [3] 93 % of control | dose: 200.0 mg/kg/injection, schedule: Q01DX009 (ip), vehicle: Klucel (hydroxypropylcellulose) (HPC) 86 % of control | [4] 90 % of control | dose: 400.0 mg/kg/injection, schedule: Q01DX009 (ip), vehicle: Klucel (hydroxypropylcellulose) (HPC) 93 % of control | [5] 101 % of control

O=C1c2cccc3cccc(c23)C(=O)N1CCN1C(=O)c2cccc3cccc(c23)C1=O
inactive: dose: 3.13 mg/kg/injection, schedule: Q01DX009 (ip), vehicle: Klucel (hydroxypropylcellulose) (HPC) 100 % of control | dose: 6.25 mg/kg/injection, schedule: Q01DX009 (ip), vehicle: Klucel (hydroxypropylcellulose) (HPC) 103 % of control | dose: 12.5 mg/kg/injection, schedule: Q01DX009 (ip), vehicle: Klucel (hydroxypropylcellulose) (HPC) 100 % of control

Cc1ccc([P+](Cc2ccccc2)(c2ccccc2)c2cccc3ccccc23)cc1 (stereo not given)
inactive: dose: 15.0 mg/kg/injection, schedule: Q01DX001 (ip), vehicle: carboxymethylcellulose (CMC) 94 % of control | dose: 30.0 mg/kg/injection, schedule: Q01DX001 (ip), vehicle: carboxymethylcellulose (CMC) 93 % of control

Nc1ccccc1C(=O)NO
inactive: dose: 100.0 mg/kg/injection, schedule: Q01DX001 (ip), vehicle: saline 98 % of control | dose: 200.0 mg/kg/injection, schedule: Q01DX001 (ip), vehicle: saline 97 % of control | dose: 400.0 mg/kg/injection, schedule: Q01DX001 (ip), vehicle: saline 97 % of control

C=CC1CN2CCC1CC2C(O)c1ccnc2ccccc12 (stereo not given)
inactive: dose: 100.0 mg/kg/injection, schedule: Q01DX009 (ip), vehicle: gum acacia 107 % of control | dose: 200.0 mg/kg/injection, schedule: Q01DX009 (ip), vehicle: gum acacia 105 % of control
